Data from paper PMC4947906, “Two fatty acyl reductases involved in moth pheromone biosynthesis” (Scientific Reports, 2016).

Assays:
SexpgFAR II = target: T1, SexpgFAR II (Spodoptera exigua, UniProt A0A0P0IV71); assay: yeast expression, fatty alcohol by GC-MS; assay type: cell-based; details: fed as methyl ester 0.5 mM, 48 h, 30 °C; the acyl-CoA itself was not added
T1 construct: gene pgFARII; pYES2.1/V5-His TOPO in S. cerevisiae INVSc1
T1 sequence (A0A0P0IV71 1-454): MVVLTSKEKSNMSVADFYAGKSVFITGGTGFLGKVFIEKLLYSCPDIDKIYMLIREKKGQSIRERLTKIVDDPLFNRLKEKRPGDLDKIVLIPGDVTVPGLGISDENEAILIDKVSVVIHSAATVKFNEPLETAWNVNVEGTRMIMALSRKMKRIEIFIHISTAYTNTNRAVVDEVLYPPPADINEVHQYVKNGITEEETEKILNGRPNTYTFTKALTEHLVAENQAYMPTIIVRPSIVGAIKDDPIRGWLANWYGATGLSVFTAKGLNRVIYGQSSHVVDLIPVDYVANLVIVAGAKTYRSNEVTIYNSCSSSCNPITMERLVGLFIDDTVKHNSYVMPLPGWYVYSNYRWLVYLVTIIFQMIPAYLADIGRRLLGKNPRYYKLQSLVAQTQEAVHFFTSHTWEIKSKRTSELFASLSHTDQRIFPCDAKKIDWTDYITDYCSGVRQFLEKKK

SexpgFAR I = target: T2, SexpgFAR I (Spodoptera exigua, UniProt A0A0F6NS86); assay: yeast expression, fatty alcohol by GC-MS; assay type: cell-based; details: fed as methyl ester 0.5 mM, 48 h, 30 °C, the acyl-CoA itself was not added
T2 construct: gene pgFARI; pYES2.1/V5-His TOPO in S. cerevisiae INVSc1
T2 sequence (A0A0F6NS86 1-459): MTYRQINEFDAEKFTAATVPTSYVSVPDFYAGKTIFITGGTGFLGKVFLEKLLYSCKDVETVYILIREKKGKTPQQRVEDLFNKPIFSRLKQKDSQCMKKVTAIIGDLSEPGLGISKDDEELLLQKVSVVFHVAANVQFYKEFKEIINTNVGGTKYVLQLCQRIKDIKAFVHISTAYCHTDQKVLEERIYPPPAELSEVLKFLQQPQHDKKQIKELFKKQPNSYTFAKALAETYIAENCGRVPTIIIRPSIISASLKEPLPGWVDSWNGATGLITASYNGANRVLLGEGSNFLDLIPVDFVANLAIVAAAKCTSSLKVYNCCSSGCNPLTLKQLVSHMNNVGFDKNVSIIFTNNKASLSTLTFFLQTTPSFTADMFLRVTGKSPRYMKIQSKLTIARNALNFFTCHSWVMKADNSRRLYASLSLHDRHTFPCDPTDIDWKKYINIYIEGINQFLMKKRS

Compound | yeast expression, fatty alcohol by GC-MS (SexpgFAR II) | further results
C/C=C/C/C=C\CCCCCCCC(=O)OC [Z9E12-14:acyl] | SexpgFAR II exhibits specificity for Z9-14:acid and Z9E12-14:acid precursors | 
CCCC/C=C\CCCCCCCC(=O)OC [Z9-14:acyl] | SexpgFAR II exhibits specificity for Z9-14:acid and Z9E12-14:acid precursors | 
CCCC/C=C\CCCCCCCCCC(=O)OC [Z11-16:acyl] |  | yeast expression, fatty alcohol by GC-MS (SexpgFAR I): SexpgFAR I produced significantly more Z11-16:OH than SexpgFAR II
CCCCCCCCCCCCCCCC(=O)SCCNC(=O)CCNC(=O)[C@H](O)C(C)(C)COP(=O)(O)OP(=O)(O)OC[C@H]1O[C@@H](n2cnc3c(N)ncnc32)[C@H](O)[C@@H]1OP(=O)(O)O [C16:Acyl] |  | yeast expression, fatty alcohol by GC-MS (SexpgFAR I; also endogenous C16 acyl of yeast): SexpgFAR I-transformed yeast cells produced a significantly higher quantity of C16 fatty alcohol
